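How tested: cells in 96-well plates exposed to compound for 48 hours at five concentrations. GI50 marks 50% less growth. TGI denotes the concentration required for complete inhibition of growth.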
Assays:
Assay in all cases: growth of human tumour cells (NCI), 48 h
SNB-75 CNS = tested on: SNB-75 CNS
OVCAR-3 ovarian = tested on: OVCAR-3 ovarian
HCT-116 colon = tested on: HCT-116 colon
HOP-62 NSCLC = tested on: HOP-62 NSCLC
NCI-H23 lung = tested on: NCI-H23 lung
SF-295 CNS = tested on: SF-295 CNS
DU-145 prostate = tested on: DU-145 prostate
BT-549 breast = tested on: BT-549 breast
PC-3 prostate = tested on: PC-3 prostate
UO-31 renal = tested on: UO-31 renal

SMILES	TGI (SNB-75 CNS)	TGI (OVCAR-3 ovarian)	TGI (HCT-116 colon)	TGI (HOP-62 NSCLC)	TGI (NCI-H23 lung)	TGI (SF-295 CNS)	TGI (DU-145 prostate)	TGI (BT-549 breast)	TGI (PC-3 prostate)	TGI (UO-31 renal)	GI50 (SNB-75 CNS)	GI50 (OVCAR-3 ovarian)	GI50 (HCT-116 colon)	GI50 (HOP-62 NSCLC)	GI50 (NCI-H23 lung)	GI50 (SF-295 CNS)	GI50 (DU-145 prostate)	GI50 (BT-549 breast)	GI50 (PC-3 prostate)	GI50 (UO-31 renal)
O=C(CCCn1ccnc1[N+](=O)[O-])NCCn1cnc([N+](=O)[O-])c1	> 100 µM	> 100 µM	> 100 µM	> 100 µM	> 100 µM	> 100 µM	> 100 µM	> 100 µM	> 100 µM	> 100 µM										
C/C1=C\CC[C@@](C)(O)[C@H]2C[C@H](CC/C(C)=C/CC1)C1(CC1)C(=O)O2	> 100 µM	84.7 µM	32.2 µM	35.4 µM	> 100 µM	46.7 µM	31.2 µM	55.7 µM	32.4 µM	33.8 µM	44.2 µM	25.2 µM	18.1 µM	18.5 µM	38 µM	19.3 µM	16.6 µM	23.7 µM	14.8 µM	18.2 µM
COC(=O)Nc1nc2c(OC)c(OC)c(OC)cc2[nH]1	> 92.6 µM	49.1 µM	> 100 µM	> 100 µM	> 100 µM	> 100 µM	> 100 µM	> 100 µM	> 100 µM	> 100 µM	15.4 µM	15.6 µM	10.1 µM	33.5 µM	39.1 µM	27.9 µM	32 µM	50.4 µM	24.2 µM	36.4 µM
CC(=O)OCCC/C(=C\c1ccc2ccccc2c1)[N+](=O)[O-]	2.99 µM	3.08 µM	3.3 µM	4.09 µM	4.65 µM	4.55 µM	3.4 µM	3.42 µM	4.24 µM	2.6 µM	1.45 µM	1.52 µM	1.61 µM	2 µM	1.79 µM	1.96 µM	1.65 µM	1.72 µM	1.93 µM	1.16 µM
O=C1C2C(C(=O)[N]1[Hg][c]1ccccc1)C1(Cl)C(Cl)=C(Cl)C2(Cl)C1(Cl)Cl (stereo not drawn)	2.92 µM	0.467 µM	2.87 µM	19.2 µM	3.32 µM	36 µM	3.29 µM	2.49 µM	23.7 µM	3.57 µM	1.33 µM	0.229 µM	1.54 µM	6.21 µM	1.49 µM	12.4 µM	1.66 µM	1.2 µM	6.42 µM	1.73 µM
CC(C)(C)c1ccc(C(=O)N/N=C/c2ccc(O)cc2O)cc1	13.6 µM	2.06 µM	11.5 µM	11.1 µM	13.3 µM	3.22 µM	14 µM	9.53 µM	21.8 µM	2.28 µM	0.584 µM	0.28 µM	0.281 µM	0.418 µM	0.839 µM	0.327 µM	0.564 µM	0.933 µM	0.706 µM	0.24 µM
NC(=O)Nc1ccc2ncnc(Nc3ccc(Cl)cc3)c2c1	61 µM	> 83.4 µM	98.2 µM	> 91.9 µM	69 µM	> 67.4 µM	> 100 µM	67.4 µM	> 96.2 µM	> 65.6 µM	8 µM	10.4 µM	24.9 µM	26.7 µM	21.6 µM	19.2 µM	4.21 µM	18.9 µM	19.4 µM	6.96 µM
NC1=CC(=O)C(=O)c2cccnc21	15.3 µM	29.4 µM	12.5 µM	7.15 µM	7.84 µM	10.3 µM	16.3 µM	18.7 µM	49.2 µM	17.7 µM	3.02 µM	12.9 µM	3 µM	2.58 µM	2.06 µM	2.48 µM	4.94 µM	4.73 µM	11.2 µM	2.48 µM
OC(COc1ccc(Cl)cc1Cl)CN1CCCC1 (stereo not drawn)	> 100 µM	> 100 µM	> 100 µM	> 100 µM	> 100 µM	> 100 µM	> 100 µM	> 100 µM	> 100 µM	> 100 µM										
CC12C=CC(C)(O1)C1C2c2ccccc2S1(=O)=O (stereo not drawn)	> 100 µM	> 100 µM	> 100 µM	> 100 µM	> 100 µM	> 100 µM	> 100 µM	81.6 µM	> 100 µM	> 100 µM	23.2 µM	52.7 µM	47.9 µM	> 100 µM	46.6 µM	> 100 µM	50.3 µM	21.6 µM	66.8 µM	> 100 µM
CCOC(=O)Nc1nc2c(F)c(F)c(F)cc2s1	94.4 µM	> 100 µM	> 100 µM	> 100 µM	> 100 µM	> 100 µM	> 100 µM	> 100 µM	> 100 µM	> 100 µM	23.4 µM	75.1 µM	58.6 µM	33.9 µM	89 µM	38.8 µM	75.1 µM	58.3 µM	> 100 µM	> 100 µM
COc1cc2c(cc1OCCCCCCNC(=O)c1cc3ccccc3[nH]1)N=CC1CCCN1C2=O (stereo not drawn)	> 100 µM	> 100 µM	> 100 µM	> 100 µM	> 100 µM	> 100 µM	72.1 µM	74.2 µM	> 100 µM	> 100 µM	64.2 µM	6.17 µM	45.6 µM	50.2 µM	51 µM	31.1 µM	21.6 µM	21.7 µM	36 µM	33.9 µM
COc1ccc(N2CCN(CC(=O)N3CCN(c4nnc(-c5ccccc5)c(-c5ccccc5)n4)CC3)CC2)cc1	> 100 µM	> 93.4 µM	38.6 µM	> 100 µM	> 100 µM	> 100 µM	> 100 µM	33 µM	> 100 µM	> 90.6 µM	7.63 µM	4.92 µM	3.96 µM	> 67.4 µM	6.06 µM	4.15 µM	16.2 µM	3.47 µM	5.5 µM	3.94 µM
Cc1ccc(C(=O)Nc2ccc(CN3CCN(C)CC3)c(C(F)(F)F)c2)cc1C#Cc1cncc2ncccc12	1.39 µM	14.7 µM	3.87 µM	6.07 µM	15.1 µM	16.2 µM	1.53 µM	12.6 µM	21.4 µM	0.903 µM	0.264 µM	0.558 µM	0.274 µM	0.474 µM	0.894 µM	1.2 µM	0.388 µM	2.33 µM	3.15 µM	0.191 µM
C[C@@H]1CN(Cc2ccc(/C=C/c3n[nH]c4ccc5nc(-c6cn[nH]c6C(F)(F)F)c6c(c5c34)CCCC6)cc2)C[C@H](C)O1	10.1 µM	14.6 µM	11.3 µM	30.8 µM	21.7 µM	18.1 µM	16.9 µM	14.8 µM	18.8 µM	14 µM	0.643 µM	2.96 µM	1.37 µM	4.6 µM	5.71 µM	3.35 µM	4.53 µM	3.09 µM	3.93 µM	2.15 µM
Nc1c(C(=O)Nc2cccc3ccccc23)sc2nc3c(cc12)CCCC3	> 100 µM	> 100 µM	> 100 µM	> 100 µM	> 100 µM	> 100 µM	> 100 µM	17.2 µM	> 100 µM	> 100 µM	1.04 µM	0.577 µM	0.8 µM	2.16 µM	3.43 µM	0.621 µM	2.62 µM	1.4 µM	1.8 µM	3.47 µM
COc1cc(/C=C/C(=O)c2c(C)n([O-])c3cc(C)c(C)cc3[n+]2=O)cc(OC)c1OC	41.3 µM	41.6 µM	38.3 µM	58.2 µM	41.9 µM	34.8 µM	30.8 µM	30.8 µM	38.5 µM	32.3 µM	19.8 µM	16.8 µM	8.08 µM	20.2 µM	16.2 µM	13.2 µM	13.1 µM	11.8 µM	14.2 µM	15.4 µM
c1ccc(-c2n(Cc3ccc4ccccc4n3)c3ccccc3[n+]2Cc2ccc3ccccc3n2)cc1	0.937 µM	1.38 µM	1.19 µM	1.95 µM	1.14 µM	1.39 µM	5.55 µM	1.32 µM	1.35 µM	2.89 µM	0.229 µM	0.311 µM	0.247 µM	0.446 µM	0.262 µM	0.358 µM	0.417 µM	0.31 µM	0.23 µM	1.45 µM
COC(=O)[C@]12CC[C@@H](C)[C@H](C)[C@@H]1C1=CC[C@@H]3[C@@]4(C)C(c5ncon5)=C[C@@](C)(CO)C4=CC[C@@]3(C)[C@]1(C)CC2	4.33 µM	3.25 µM	3.2 µM	5.08 µM	4.52 µM	5.03 µM	3.26 µM	6.38 µM	4.7 µM	3.2 µM	1.62 µM	1.79 µM	1.68 µM	2.42 µM	2.01 µM	2.11 µM	1.77 µM	2.39 µM	2.1 µM	1.69 µM
O=S(=O)(NC(=S)Nc1ccccc1)c1ccc(N2N=C3c4ccccc4CC3C2c2ccc(Cl)cc2)cc1 (stereo not drawn)	> 100 µM	> 100 µM	55.2 µM	> 100 µM		> 100 µM	51.4 µM	78.3 µM	28.1 µM	38.1 µM	39.7 µM	46.3 µM	21.6 µM	41.3 µM		35.5 µM	24.9 µM	33.2 µM	13.8 µM	19 µM
Cn1cc(-c2csc(-c3cn(CCN4CCOCC4)c4ccc(F)cc34)n2)c2cccnc21	50.5 µM	9.27 µM	10.2 µM	7.59 µM	7.89 µM	7.15 µM	> 100 µM	6.21 µM	6.64 µM	7.88 µM	2.57 µM	2.71 µM	3 µM	2.42 µM	2.47 µM	2.35 µM	3.12 µM	2.18 µM	2.14 µM	2.2 µM
Cc1sc2nc(-c3ccccn3)c(/C=N/N=C(N)N)n2c1C	47.4 µM	15.6 µM	9.74 µM	16.9 µM	15.3 µM	16.9 µM	12.6 µM	4.39 µM	28.6 µM	20.9 µM	21.2 µM	8.03 µM	4.09 µM	8.06 µM	6.37 µM	8.77 µM	4.88 µM	1.92 µM	10.2 µM	8.94 µM
COc1ccc2nc(-c3ccccc3)cc(Nc3ccc(/C(C)=N/O)cc3)c2c1	> 100 µM	> 100 µM	2.85 µM	5.06 µM	> 20.9 µM	5.23 µM	> 23 µM	4.76 µM	> 64.8 µM	> 100 µM	3.54 µM	2.87 µM	1.52 µM	2.14 µM	2.51 µM	2.21 µM	2.8 µM	2.07 µM	6.36 µM	41.3 µM
CCN(CC)c1ccc(/C=C/C(=O)c2cccc(NS(C)(=O)=O)c2)cc1	> 100 µM	> 100 µM	> 100 µM	> 100 µM	> 100 µM	> 100 µM	> 100 µM	> 100 µM	> 100 µM	> 100 µM	10.6 µM	6.37 µM	3.99 µM	27.6 µM	4.51 µM	5.91 µM	7.2 µM	4.67 µM	6.35 µM	> 100 µM
CN(C)CCCNC(=O)c1cc2c3ccccc3[nH]c2c2ncccc12	33.8 µM	54.9 µM	49.2 µM	36.1 µM	29.2 µM	28 µM	> 100 µM	25.1 µM	> 100 µM	> 100 µM	13 µM	16.3 µM	9.46 µM	5.99 µM	14.6 µM	7.49 µM	19.7 µM	9.33 µM	24.9 µM	10.9 µM
